# Laboratory results: ChEMBL document CHEMBL1944551, “An integrated computational workflow for efficient and quantitative modeling of renin inhibitors” (Bioorg Med Chem, 2012)
# Key:
# [1] = biological target: T1, Renin (Homo sapiens, UniProt P00797)
# T1 sequence (P00797 whole entry): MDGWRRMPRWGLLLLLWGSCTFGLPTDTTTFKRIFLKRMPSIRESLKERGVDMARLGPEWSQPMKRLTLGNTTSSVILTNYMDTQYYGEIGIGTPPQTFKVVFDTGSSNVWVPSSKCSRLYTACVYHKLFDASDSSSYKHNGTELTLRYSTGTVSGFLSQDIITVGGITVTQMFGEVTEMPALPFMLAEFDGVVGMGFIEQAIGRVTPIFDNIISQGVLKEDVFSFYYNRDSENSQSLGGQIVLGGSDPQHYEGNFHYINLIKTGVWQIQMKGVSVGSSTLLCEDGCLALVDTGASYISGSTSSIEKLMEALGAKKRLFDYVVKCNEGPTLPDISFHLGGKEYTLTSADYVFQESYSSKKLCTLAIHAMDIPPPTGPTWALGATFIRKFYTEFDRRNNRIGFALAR
# Description: Inhibition of human recombinant renin assessed as decrease in release of AngI from tetradecapeptide after 3 hrs by EIA
# [2] = physchem; settings: octanol/buffer
Compound,IC50 [1] [nM],logP [2]
Cc1cccc(CN(C(=O)[C@H]2CNCC(=O)N2c2ccc(OCCOc3c(Cl)cc(F)cc3Cl)cc2)C2CC2)c1C,10.2,5.69
Cc1c(F)cccc1Cc1cc2c(cc1O)c(C(=O)N1CCNCC1)c(Cc1cccc(F)c1C)n2-c1ccccc1,427,7.78
O=C(c1c(Oc2ccccc2)n(-c2ccccc2)c2cc(Cl)ccc12)N1CCNCC1,537,5.71
Cc1ccc(F)cc1Oc1c(C(=O)N2CCNCC2)c2ccc(O)cc2n1-c1ccc(F)cc1,15.8,5.45
Cc1cc(Cl)c(OCCOc2ccc(N3C(=O)CNC[C@@H]3C(=O)N(Cc3cccc(C)c3C)C3CC3)cc2)cc1C,7.76,5.54
Cc1ccc(F)cc1Oc1c(C(=O)N2CCNCC2)c2ccccc2n1[C@H]1C=CCCC1,6.46,5.3
COc1ccccc1COCCCOc1ncc(N2C(=O)CNC[C@@H]2C(=O)N(Cc2cc(CCNC(C)=O)ccc2Cl)C2CC2)cn1,–,2.6
O=C(CC(F)(F)F)NCCc1ccc(Cl)c(CN(C(=O)[C@H]2CNCC(=O)N2c2ccc(OCCCOCc3ccccc3)cc2)C2CC2)c1,–,5.38
CNC(=O)CCc1ccc(Cl)c(CN(C(=O)[C@H]2CNCC(=O)N2c2cnc(OCCCOCc3ccccc3OC)nc2)C2CC2)c1,–,2.56
Cc1cc(Cl)c(OCCOc2ccc(N3C(=O)CNC[C@@H]3C(=O)N(Cc3cc(CNCC(F)F)ccc3Cl)C3CC3)cc2)c(Cl)c1,–,6.07
O=C(CC(F)(F)F)NCc1ccc(Cl)c(CN(C(=O)[C@H]2CNCC(=O)N2c2ccc(CCCOc3c(F)ccc(F)c3F)cc2)C2CC2)c1,–,5.91
O=C(Cc1ccc(Cl)c(CN(C(=O)[C@H]2CNCC(=O)N2c2ccc(COC(=O)c3ccccc3)cc2)C2CC2)c1)NC1CC1,–,4.81
COc1ccccc1COCCCOc1ncc(N2C(=O)CNC[C@@H]2C(=O)N(C)CCc2ccccc2)cn1,–,1.89
COc1ccccc1COCCCOc1ncc(N2C(=O)CNC[C@@H]2C(=O)N(Cc2cc(CNCCF)ccc2Cl)C2CC2)cn1,–,2.98
O=C(NCc1ccc(Cl)c(CN(C(=O)[C@H]2CNCC(=O)N2c2ccc(OCCCOCc3ccccc3)cc2)C2CC2)c1)C1CC1,–,4.92
CCC(=O)NCc1ccc(Cl)c(CN(C(=O)[C@H]2CNCC(=O)N2c2ccc(CCCOc3cccc(Cl)c3)cc2)C2CC2)c1,–,5.84
CNC(=O)OCCc1ccc(Cl)c(CN(C(=O)[C@H]2CNCC(=O)N2c2ccc(OCCOc3c(Cl)cc(C)cc3Cl)cc2)C2CC2)c1,–,5.67
Cc1cc(Cl)c(OCCOc2ccc(N3C(=O)CNC[C@@H]3C(=O)N(Cc3cc(CNC(=O)CC(F)(F)F)ccc3Cl)C3CC3)cn2)c(Cl)c1,–,5.19
COC(=O)NCCc1ccc(Cl)c(CN(C(=O)[C@H]2CNCC(=O)N2c2cnc(OCCCOCc3ccccc3OC)nc2)C2CC2)c1,–,2.88
COCCc1ccc(Cl)c(CN(C(=O)[C@H]2CNCC(=O)N2c2ccc(OCCCOCc3ccccc3)cc2)C2CC2)c1,–,5.32
COc1ccccc1COCCCOc1ccc(N2C(=O)CNC[C@@H]2C(=O)N(C)CCCc2ccccc2)cc1,–,4.35
COCCc1ccc(Cl)c(CN(C(=O)[C@H]2CNCC(=O)N2c2ccc(OCCOc3c(Cl)cc(C)cc3Cl)cc2)C2CC2)c1,–,6.05
COCCCc1cc(CN(C(=O)[C@H]2CNCC(=O)N2c2cnc(OCCCOCc3ccccc3OC)nc2)C2CC2)c(Cl)c[n+]1[O-],–,2.65
COc1ccccc1COCCCOc1ccc(N2C(=O)CNC[C@@H]2C(=O)N(Cc2cc(CC(=O)NC3CC3)ccc2Cl)C2CC2)cc1,–,5.14
COC(=O)NCc1ccc(Cl)c(CN(C(=O)[C@H]2CNCC(=O)N2c2ccc(CCCOc3cccc(Cl)c3)cc2)C2CC2)c1,–,5.65
COCCCc1cc(CN(C(=O)[C@H]2CNCC(=O)N2c2ccc(OCCCOCc3ccccc3OC)cc2)C2CC2)c(Cl)cn1,–,4.44
COc1ccccc1COCCCOc1ccc(N2C(=O)CNC[C@@H]2C(=O)N(C)Cc2ccccc2)cc1,–,3.82
